Among the data in ChEMBL document CHEMBL6134767, “Advances in antibacterial agents for Mycobacterium fortuitum” (2025) are MIC values, retold here.

≈ marks a conversion by molar mass, not a printed value.

One assay relates to Mycolicibacterium fortuitum. The assay can be described thus: Antimycobacterial activity against Mycobacterium fortuitum ATCC 6841. Type of assay: functional.
As for `NC(=O)c1cc([N+](=O)[O-])cc([N+](=O)[O-])c1SC(=S)N1CCCC1`, the MIC worked out at 17.5 µM (≈ 6.25 µg/mL).
For `O=c1nc(N2CCN(CC3CCCCC3)CC2)sc2c([N+](=O)[O-])cc(C(F)(F)F)cc12` [MACOZINONE], the lowest concentration to inhibit growth (MIC) was 0.022 µM (≈ 0.01 µg/mL).
Compound `CC(C)(O)c1cc2c(o1)C(=O)c1ccccc1C2=O` [AVICEQUINONE C] came in with an MIC of 48.8 µM (≈ 12.5 µg/mL).
In the case of `N#Cc1cc([N+](=O)[O-])cnc1SC(=S)N1CCCC1`, the MIC was found to be 5.3 µM (≈ 1.56 µg/mL).
In turn, `N#Cc1cc([N+](=O)[O-])cnc1SC(=S)N1CCCCC1` came in with a minimal inhibitory concentration (MIC) of 5.05 µM (≈ 1.56 µg/mL).
Compound `CCN(CC)C(=S)Sc1ncc([N+](=O)[O-])cc1C#N` yielded a minimal inhibitory concentration (MIC) of 1.35 µM (≈ 0.4 µg/mL).

A further assay has as its system Mycolicibacterium fortuitum. Kind of assay: Antibacterial activity against Mycobacterium fortuitum. Type of assay: functional.
For `Cc1ccccc1/C=C/C1=NN(C(=N)N)C(c2ccccc2C)C1` (stereo unspecified), the MIC was found to be 0.49 µM (≈ 0.156 µg/mL).
In turn, `N=C(N)N1N=C(/C=C/c2ccccc2)CC1c1ccccc1` (stereo unspecified) registered a minimal inhibitory concentration (MIC) of 0.54 µM (≈ 0.157 µg/mL).
On the same count and under the same terms, the result for `CN1C(=S)C(=O)c2ccccc21` reads 63 µM (≈ 11.2 µg/mL).
As for `N=C(N)N1N=C(/C=C/c2ccc(Cl)cc2)CC1c1ccc(Cl)cc1` (stereo unspecified), the MIC was 0.43 µM (≈ 0.154 µg/mL).
`CCOC(=O)/C=C\C(=O)c1ccc(C(C)(C)C)cc1`: it took 30.7 µM (≈ 8 µg/mL) to inhibit growth (MIC).
Still for that read-out and setting: with `COc1cc(Cc2cc(-c3ccc(Cl)cc3)n(-c3ccc(Cl)cc3)c2C)ccc1N1CCNCC1` the figure was 15.8 µM (≈ 8.02 µg/mL); with `CC(=O)O[C@@H]1[C@@H](OC(C)=O)[C@@H](O)[C@H](OC[C@]2(C)[C@@H](O)C[C@H](O)[C@]3(C)[C@H]4CC=C5[C@@H]6C[C@](C)(C(=O)O)CC[C@]6(C)CC[C@@]5(C)[C@]4(C)CC[C@@H]23)O[C@H]1C`, 17.1 µM (≈ 12.3 µg/mL); with `COc1cc(O)cc(/C=C/c2cc3ccccc3s2)c1`, 56.7 µM (≈ 16 µg/mL).
`CC(=O)O[C@@H]1[C@@H](O)[C@@H](O)[C@H](OC[C@]2(C)[C@@H](O)C[C@H](O)[C@]3(C)[C@H]4CC=C5[C@@H]6C[C@](C)(C(=O)O)CC[C@]6(C)CC[C@@]5(C)[C@]4(C)CC[C@@H]23)O[C@H]1C` registered an MIC of 29.3 µM (≈ 19.8 µg/mL).
In turn, `CCOC(=O)/C=C/C(=O)c1ccc(C(C)(C)C)cc1` yielded an MIC of 15.4 µM (≈ 4 µg/mL).
Turning to `C[C@H](NC(=O)c1cc([N+](=O)[O-])cc([N+](=O)[O-])c1)c1ccccc1`, the MIC stood at 39.7 µM (≈ 12.5 µg/mL).
In turn, `CCOC(=O)/C=C/C(=O)c1cc2ccccc2s1` registered an MIC of 61.5 µM (≈ 16 µg/mL).
Regarding `Cc1c(Cc2ccc(N3CCNCC3)cn2)cc(-c2ccc(Cl)cc2)n1-c1ccc(Cl)cc1`, 16.8 µM (≈ 8.02 µg/mL) was the least that counted as inhibitory (MIC).
Consider `O=C1C(=S)N(c2ccccc2)c2ccccc21`, for which it took 63 µM (≈ 15.1 µg/mL) to inhibit growth (MIC).
Compound `C[C@@H](OC(=O)c1cc([N+](=O)[O-])cc([N+](=O)[O-])c1)c1ccccc1` returned an MIC of 4.94 µM (≈ 1.56 µg/mL).
As for `CC(=O)O[C@@H]1[C@@H](OC(C)=O)[C@@H](O)[C@H](OC[C@]2(C)[C@@H](O)C[C@H](O)[C@]3(C)[C@H]4CC=C5[C@@H]6C[C@](C)(C(=O)O[C@@H]7O[C@@H](C)[C@H](O)[C@@H](O)[C@H]7O)CC[C@]6(C)CC[C@@]5(C)[C@]4(C)CC[C@@H]23)O[C@H]1C`, it took 27.9 µM (≈ 24.2 µg/mL) to inhibit growth (MIC).
`CCCCN1C(=S)C(=O)c2ccccc21` displayed an MIC of 32 µM (≈ 7.02 µg/mL).
`CC1(C)[C@@H](O)C[C@H](O)[C@]2(C)[C@H]3CC=C4[C@@H]5C[C@](C)(C(=O)O)CC[C@]5(C)CC[C@@]4(C)[C@]3(C)CC[C@@H]12`: the MIC turned out to be 3.2 µM (≈ 1.51 µg/mL).
On to `Nc1ccc(-c2nc3cc(-c4ccc5[nH]c(-c6ccc(N)cc6)nc5c4)ccc3[nH]2)cc1`, for which inhibition of growth (MIC) required 19.2 µM (≈ 8 µg/mL).
In the case of `COc1ccc(/C=C/C2=NN(C(=N)N)C(c3ccc(OC)cc3)C2)cc1` (stereo unspecified), the lowest concentration to inhibit growth (MIC) was 0.44 µM (≈ 0.154 µg/mL).
Turning to `C[C@H](OC(=O)c1cc([N+](=O)[O-])cc([N+](=O)[O-])c1)c1ccccc1`, the MIC was above 10.3 µM.
On the same count and under the same terms, the result for `Cc1c(Cc2ccc(N3CCNCC3)cc2C(F)(F)F)cc(-c2ccc(Cl)cc2)n1-c1ccc(Cl)cc1` reads 7.35 µM (≈ 4 µg/mL); that for `COc1cc(/C=C/C2=NN(C(=N)N)C(c3cc(OC)c(OC)c(OC)c3)C2)cc(OC)c1OC` (stereo unspecified), 5.31 µM (≈ 2.5 µg/mL).
Compound `C[C@@H](NC(=O)c1cc([N+](=O)[O-])cc([N+](=O)[O-])c1)c1ccccc1` showed an MIC of 1.27 µM (≈ 0.4 µg/mL).
Regarding `COc1ccccc1/C=C/C1=NN(C(=N)N)C(c2ccccc2OC)C1` (stereo unspecified), the MIC amounted to 0.89 µM (≈ 0.312 µg/mL).

Usually MIC stands for the lowest concentration that inhibits growth of the organism. Low values mean greater potency, high ones weaker potency.
